Assays:
HL60 = test: CellTiter-Blue cell-based survival/proliferation assay, HL60; conditions: Homo sapiens, HL-60, Leukemia cell line HL60, 48 h, read-out: Anti-tumoral activity (measured IC50) HL60
Method in brief: (§1)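 Tenfold compound dilutions (0–10 μM) were added to 1·10^4 cells/well. Plates incubated 48 h at 37 °C. CellTiter-Blue reduction (4 h, 37 °C) was read as fluorescence at 590 nm, background-corrected with a cell-free blank.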

HUT78 = test: CellTiter-Blue cell-based survival/proliferation assay, HUT78; conditions: Homo sapiens, Lymphoma cell line HUT78, 48 h, read-out: Anti-tumoral activity (measured IC50) HUT78
Method in brief: as §1

KARPAS299 = test: CellTiter-Blue cell-based survival/proliferation assay, KARPAS299; conditions: Homo sapiens, KARPAS-299, Lymphoma cell line KARPAS299, 48 h, read-out: Anti-tumoral activity (measured IC50) KARPAS299
Method in brief: as §1

REC1 = test: CellTiter-Blue cell-based survival/proliferation assay, REC1; conditions: Homo sapiens, Lymphoma cell line REC1, 48 h, read-out: Anti-tumoral activity (measured IC50) REC1
Method in brief: as §1

OPM2 = test: CellTiter-Blue cell-based survival/proliferation assay, OPM2; conditions: Homo sapiens, OPM-2, Myeloma cell line OPM2, 48 h, read-out: Anti-tumoral activity (measured IC50) OPM2
Method in brief: as §1

A375 = test: CellTiter-Blue cell-based survival/proliferation assay, A375; conditions: Homo sapiens, A-375; A375 melanoma cell line, 48 h
Method: (§2) Cell-Based Proliferation Screening of Compounds
(§3) CellTiter-Blue cell-based survival/proliferation assay (Promega G8080) was performed on tumor cell lines. A total of 1·10^4 cells/well/50 μl were seeded in a 96-wells plate. Treatment was initiated by addition of a 2× drug solution of 1/10 serial dilutions ranging from 0 to 10 μM. Cells were grown for 48 h at 37° C. and then incubated with 10 μl/well of Promega CellTiter-Bleue reagent for 4 h at 37° C. The amount of resorufin dye formed was quantified by its fluorescence emission at 590 nm using a scanning multiwell spectrophotometer (OPTIMA, BMG labtech, France). A blank well without cells was used as a background control for the spectrophotometer.

A4513 = test: CellTiter-Blue cell-based survival/proliferation assay, A4513; conditions: Homo sapiens; A4513 Ewing cell line, 48 h
Method: as §2, §3

A498 = test: CellTiter-Blue cell-based survival/proliferation assay, A498; conditions: Homo sapiens; A498 kidney tumor cell line, 48 h
Method in brief: as §1

A549 = test: CellTiter-Blue cell-based survival/proliferation assay, A549; conditions: Homo sapiens; A549 lung tumor cell line, 48 h
Method in brief: as §1

ACHN = test: CellTiter-Blue cell-based survival/proliferation assay, ACHN; conditions: Homo sapiens; ACHN kidney tumor cell line, 48 h
Method in brief: as §1

AGS = test: CellTiter-Blue cell-based survival/proliferation assay, AGS; conditions: Homo sapiens; AGS stomach tumor cell line, 48 h
Method in brief: as §1

BT20 = test: CellTiter-Blue cell-based survival/proliferation assay, BT20; conditions: Homo sapiens, BT-20; BT20 breast tumor cell line, 48 h
Method in brief: as §1

BXPC3 = test: CellTiter-Blue cell-based survival/proliferation assay, BXPC3; conditions: Homo sapiens, BXPC-3; BXPC3 pancreas tumor cell line, 48 h
Method in brief: as §1

CALU6 = test: CellTiter-Blue cell-based survival/proliferation assay, CALU6; conditions: Homo sapiens, Calu-6; CALU6 lung tumor cell line, 48 h
Method in brief: as §1

CLS354 = test: CellTiter-Blue cell-based survival/proliferation assay, CLS354; conditions: Homo sapiens, CLS-354; CLS354_4 head & neck tumor cell line, 48 h
Method in brief: as §1

DLD1 = test: CellTiter-Blue cell-based survival/proliferation assay, DLD1; conditions: Homo sapiens, DLD-1; DLD_1 colorectal tumor cell line, 48 h
Method in brief: as §1

DU145 = test: CellTiter-Blue cell-based survival/proliferation assay, DU145; conditions: Homo sapiens, DU-145; DU145 prostate tumor cell line, 48 h
Method in brief: as §1

H1299 = test: CellTiter-Blue cell-based survival/proliferation assay, H1299; conditions: Homo sapiens, NCI-H1299; H1299 lung tumor cell line, 48 h
Method in brief: as §1

HCT116 = test: CellTiter-Blue cell-based survival/proliferation assay, HCT116; conditions: Homo sapiens, HCT-116; HCT116 colorectal tumor cell line, 48 h
Method in brief: as §1

HEP2 = test: CellTiter-Blue cell-based survival/proliferation assay, HEP2; conditions: Homo sapiens, HEp-2; HEP2 head & neck tumor cell line, 48 h
Method in brief: as §1

HEPG2 = test: CellTiter-Blue cell-based survival/proliferation assay, HEPG2; conditions: Homo sapiens; HEPG2 liver tumor cell line, 48 h
Method in brief: as §1

HGC27 = test: CellTiter-Blue cell-based survival/proliferation assay, HGC27; conditions: Homo sapiens, HGC-27; HGC27 stomach tumor cell line, 48 h
Method in brief: as §1

MDAMB231 = test: CellTiter-Blue cell-based survival/proliferation assay, MDAMB231; conditions: Homo sapiens, MDA-MB-231; MDAMB231 breast tumor cell line, 48 h
Method in brief: as §1

MELWO = test: CellTiter-Blue cell-based survival/proliferation assay, MELWO; conditions: Homo sapiens; MEL_WO melanoma cell line, 48 h
Method: as §2, §3

MESSA = test: CellTiter-Blue cell-based survival/proliferation assay, MESSA; conditions: Homo sapiens, MES-SA; MESSA ovary tumor cell line, 48 h
Method in brief: as §1

PANC1 = test: CellTiter-Blue cell-based survival/proliferation assay, PANC1; conditions: Homo sapiens, PANC-1; PANC_1 pancreas tumor cell line, 48 h
Method in brief: as §1

PC3 = test: CellTiter-Blue cell-based survival/proliferation assay, PC3; conditions: Homo sapiens, PC-3; PC3 prostate tumor cell line, 48 h
Method in brief: as §1

PLCPRF5 = test: CellTiter-Blue cell-based survival/proliferation assay, PLCPRF5; conditions: Homo sapiens, PLC-PRF-5; PLC_PRF5 liver tumor cell line, 48 h
Method in brief: as §1

SW579 = test: CellTiter-Blue cell-based survival/proliferation assay, SW579; conditions: Homo sapiens; SW579 head & neck tumor cell line, 48 h
Method in brief: as §1

TOV112D = test: CellTiter-Blue cell-based survival/proliferation assay, TOV112D; conditions: Homo sapiens; TOV112D ovary tumor cell line, 48 h
Method in brief: as §1

U118 = test: CellTiter-Blue cell-based survival/proliferation assay, U118; conditions: Homo sapiens; U118 glioblastoma cell line, 48 h
Method: as §2, §3

U2OS = test: CellTiter-Blue cell-based survival/proliferation assay, U2OS; conditions: Homo sapiens; U2OS osteosarcoma cell line, 48 h
Method: as §2, §3

U87MG = test: CellTiter-Blue cell-based survival/proliferation assay, U87MG; conditions: Homo sapiens, U-87 MG; U87_MG glioblastoma cell line, 48 h
Method: as §2, §3

| Compound | IC50 (HL60) | IC50 (HUT78) | IC50 (KARPAS299) | IC50 (REC1) | IC50 (OPM2) | IC50 (A375) | IC50 (A4513) | IC50 (A498) | IC50 (A549) | IC50 (ACHN) | IC50 (AGS) | IC50 (BT20) | IC50 (BXPC3) | IC50 (CALU6) | IC50 (CLS354) | IC50 (DLD1) | IC50 (DU145) | IC50 (H1299) | IC50 (HCT116) | IC50 (HEP2) | also measured |
| --- | --- | --- | --- | --- | --- | --- | --- | --- | --- | --- | --- | --- | --- | --- | --- | --- | --- | --- | --- | --- | --- |
| COc1ccc(C)c(Nc2ncc(-c3ccc(-n4cccn4)cc3)s2)c1 [Example 011, (5-Methoxy-2-methyl-phenyl)-[5-(4-pyrazol-1-yl-phenyl)-thiazol-2-yl]-amine] | > 1 µM | > 1 µM | > 1 µM | > 1 µM | > 1 µM | > 1 µM | > 1 µM | > 1 µM | > 1 µM | > 1 µM | > 1 µM | > 1 µM | > 1 µM | > 1 µM | > 1 µM | > 1 µM | > 1 µM | > 1 µM | > 1 µM | > 1 µM | IC50 (HEPG2): > 1 µM; IC50 (HGC27): > 1 µM; IC50 (MDAMB231): > 1 µM; IC50 (MELWO): > 1 µM; IC50 (MESSA): > 1 µM; IC50 (PANC1): > 1 µM; IC50 (PC3): > 1 µM; IC50 (PLCPRF5): > 1 µM; IC50 (SW579): > 1 µM; IC50 (TOV112D): > 1 µM; IC50 (U118): > 1 µM; IC50 (U2OS): > 1 µM; IC50 (U87MG): > 1 µM |
| COc1ccc(C)c(Nc2ncc(-c3ccc(N4CCNC4=O)cc3)s2)c1 [Example 013, 1-{4-[2-(5-Methoxy-2-methyl-phenylamino)-thiazol-5-yl]-phenyl}-imidazolidin-2-one] | 0.1 to 0.5 µM | 0.5 to 1 µM | 0.5 to 1 µM | 0.5 to 1 µM | 0.1 to 0.5 µM | > 1 µM | 0.1 to 0.5 µM | > 1 µM | > 1 µM | > 1 µM | > 1 µM | > 1 µM | > 1 µM | > 1 µM | > 1 µM | > 1 µM | > 1 µM | > 1 µM | > 1 µM | > 1 µM | IC50 (HEPG2): > 1 µM; IC50 (HGC27): > 1 µM; IC50 (MDAMB231): > 1 µM; IC50 (MELWO): > 1 µM; IC50 (MESSA): > 1 µM; IC50 (PANC1): > 1 µM; IC50 (PC3): 0.5 to 1 µM; IC50 (PLCPRF5): > 1 µM; IC50 (SW579): > 1 µM; IC50 (TOV112D): > 1 µM; IC50 (U118): > 1 µM; IC50 (U2OS): > 1 µM; IC50 (U87MG): > 1 µM |
| CCOCc1ccc(C)c(Nc2ncc(-c3ccc(N4CCNC4=O)cc3)s2)c1 [Example 014, 1-{4-[2-(5-Ethoxymethyl-(2-methyl-phenylamino))-thiazol-5-yl]-phenyl}-imidazolidin-2-one] | > 1 µM | > 1 µM | 0.1 to 0.5 µM | > 1 µM | > 1 µM | > 1 µM | 0.5 to 1 µM | > 1 µM | > 1 µM | > 1 µM | > 1 µM | > 1 µM | > 1 µM | > 1 µM | > 1 µM | > 1 µM | > 1 µM | > 1 µM | > 1 µM | > 1 µM | IC50 (HEPG2): > 1 µM; IC50 (HGC27): > 1 µM; IC50 (MDAMB231): > 1 µM; IC50 (MELWO): > 1 µM; IC50 (MESSA): > 1 µM; IC50 (PANC1): > 1 µM; IC50 (PC3): > 1 µM; IC50 (PLCPRF5): > 1 µM; IC50 (SW579): > 1 µM; IC50 (TOV112D): > 1 µM; IC50 (U118): > 1 µM; IC50 (U2OS): > 1 µM; IC50 (U87MG): > 1 µM |
| CCOCc1ccc(C)c(Nc2nc(-c3ccc(-n4cccn4)cc3)cs2)c1 [Example 015, (5-Ethoxymethyl-2-methyl-phenyl)-[4-(4-pyrazol-1-yl-phenyl)-thiazol-2-yl]-amine] | ≤ 0.1 µM | ≤ 0.1 µM | ≤ 0.1 µM | ≤ 0.1 µM | 0.1 to 0.5 µM | > 1 µM | 0.1 to 0.5 µM | 0.5 to 1 µM | > 1 µM | > 1 µM | > 1 µM | > 1 µM | > 1 µM | > 1 µM | ≤ 0.1 µM | > 1 µM | > 1 µM | > 1 µM | > 1 µM | > 1 µM | IC50 (HEPG2): > 1 µM; IC50 (HGC27): > 1 µM; IC50 (MDAMB231): > 1 µM; IC50 (MELWO): > 1 µM; IC50 (MESSA): > 1 µM; IC50 (PANC1): > 1 µM; IC50 (PC3): ≤ 0.1 µM; IC50 (PLCPRF5): > 1 µM; IC50 (SW579): > 1 µM; IC50 (TOV112D): 0.5 to 1 µM; IC50 (U118): > 1 µM; IC50 (U2OS): > 1 µM; IC50 (U87MG): > 1 µM |
